Entries after “also recorded” stand apart in the source; their conditions may differ.

This note sets out measurements from patent US20180011102A1, “THE PROTEIN KINASE ACTIVITY OF PHOSPHOGLYCERATE KINASE 1 AS A TARGET FOR CANCER TREATMENT AND DIAGNOSIS” (Board of Regents, The University of Texas System, priority 2015, published 2018).

The test system of data set [1] is PDHK1 T338. Kind of data set: Immunoblotting of hypoxia-induced PDHK1 T338 phosphorylation. Type of data set: cell-based, human. Particulars: U87 and U251 cells with PGK1 shRNA, hypoxia 6 h. How it is done: FIGS. 14A-P. Mitochondrial PGK1 Phosphorylates PDHK1 at T338. FIG. 14A. […] Immunoblotting analyses were performed with the indicated antibodies. FIG. 14B. U87 cells (left panel) or U87/EGFR (right panel) cells expressing PGK1 shRNA with or without reconstituted expression of WT rPGK1 and the indicated mutants were stimulated with or without hypoxia for 6 h (left panel) or EGF (100 ng/ml) (right panel) for 6 h. These cells were incubated with [1-^14C]-pyruvate for 2 h. [1-^14C]CO2 production rates were measured. FIG. 14C. U87 cells expressing SFB-PDHK1, SFB-PDHK2, SFB-PDHK3, or SFB-PDHK4 were stimulated with or without hypoxia for 6 h. Mitochondrial fractions of these cells were prepared. SFB pull-down analyses with streptavidin-conjugated beads were performed. Immunoblotting analyses were performed with the indicated antibodies. FIG. 14D. […] Phospho-amino acid analysis of gel-isolated ^32P-phosphorylated SUMO-PDHK1 was performed. […] On the autoradiogram in the right hand panel, the green circle indicates pSer; the red circle indicates pThr; and the black circle indicates pTyr. FIG. 14E. […] FIG. 14F. […] ATP concentrations in mitoplast isolated from U87 or U251 cells treated with or without hypoxia for 6 h were measured. […] The glycolytic activities of bacterially purified WT PGK1, PGK1 T378P, PGK1 S203A, and PGK1 R39/K41A were measured. […]

For data set [2], the system named is PDH. Nature of the data set: Immunoblotting of hypoxia-induced PDH phosphorylation. Type of data set: cell-based, human. Particulars: U87 and U251 cells expressing PGK1 shRNA, hypoxia 6 h. The method, then: FIGS. 5A-E. PDHK1 Phosphorylation by PGK1 Activates PDHK1. Immunoblotting analyses were performed with the indicated antibodies. FIG. 5A. Bacterially purified His-PDH with purified WT PDHK1 or PDHK1 T338A was mixed with purified WT PGK1 or PGK1 T378P. In vitro phosphorylation analyses were performed. FIG. 5B. […] FIG. 5C. U87 and U251 cells expressing PDHK1 shRNA with or without reconstituted expression of WT rPDHK1 or rPDHK1 T338A were stimulated with or without hypoxia for 6 h. FIG. 5D. […] FIG. 5E.

Data set [3] relates to PDH complex. The conditions noted are these: isolated mitochondria of U87 cells with PGK1 shRNA, hypoxia 6 h.
Description: U87 cells with or without PGK1 shRNA and with or without reconstituted expression of WT rPGK1 or rPGK1 S203A were stimulated with or without hypoxia for 6 h. Mitochondrial fractions of the cells were prepared and activity of PDH complex-mediated conversion of ^14C-labeled pyruvate into ^14C-labeled CO2 was measured. Data represent the means±SD of three independent experiments. *p<0.01.
The [1-^14C]-pyruvate conversion assay was performed as previously described (Pezzato et al., 2009) with minor modification. Briefly, ^14CO2 production through the PDH complex was measured using isolated mitochondria (1 mg) in the 1 ml mitochondria resuspension buffer (200 mM sucrose, 10 mM Hepes [pH 7.4], 5 mM malate, 2 mM monosodium phosphate, 2 mM ADP, 1 mM EGTA) containing [1-^14C]-pyruvate (0.1 μCi/ml). The incubation mixture in a 2-ml Eppendorf tube was placed at the bottom of a 20-ml scintillation vial with a foil-lined screw cap and maintained in agitation. The ^14CO2 produced during incubation was trapped by 1 ml of hyamine hydroxide at the bottom of the scintillation vial. […] Then, 19 ml of scintillator liquid was added to each scintillation vial and radioactivity was measured on a scintillation counter. The results were normalized based on mitochondrial protein levels measured by Bradford assay using bovine serum albumin as the standard.
Data set [4] concerns histone H3 at Ser10. Kind of data set: Western blot of EGF-induced histone H3 S10 phosphorylation. Type of data set: cell-based, human. The conditions noted are these: U87 cells expressing PGK1 shRNA, EGF stimulation. A general note: In western blotting, separated proteins are transferred to a membrane and probed.

For “PGK1 shRNA: pGIPZ PGK1 shRNA generated with GGATGTCTATGTCAATGATGC (SEQ ID NO: 4)”, in data set [1], the “hypoxia-induced PDHK1 T338 phosphorylation” value is “blocked”. In addition, in data set [2], the “hypoxia-induced PDH phosphorylation” value was “blocked”. Besides, the “hypoxia-induced suppression of conversion of pyruvate to CO2” value in data set [3] is “significantly counteracted”. The “EGF-induced phosphorylation of histone H3 at Ser10” value in data set [4] was “blocked; also recorded: greatly diminished”.
